Converted amounts (≈) assume the structure as drawn.
How the values were obtained:
Format in all cases: cell-based
B. subtilis ATCC 6633 = assay: MIC by agar dilution, B. subtilis ATCC 6633; details: Bacillus subtilis, ATCC6633, 17 h; B. subtilis ATCC 6633; agar dilution, Mueller-Hinton agar; read-out: Minimal Inhibitory Concentration (MIC)
Procedure, shortened: (§1)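 Agar incorporation method in Mueller-Hinton medium, compound in two-fold series; 10^6 CFU/ml spots; read after 17±1 h, 35°-37° C.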

Staph. aureus ATCC 6538P = assay: MIC by agar dilution, Staph. aureus ATCC 6538P; details: Staphylococcus aureus, ATCC6538P, 17 h; Staph. aureus ATCC 6538P; agar dilution, Mueller-Hinton agar; read-out: Minimal Inhibitory Concentration (MIC)
Procedure, shortened: as §1

Staph. aureus Smith = assay: MIC by agar dilution, Staph. aureus Smith; details: Staphylococcus aureus, 17 h, Mueller-Hinton agar, read-out: Minimal Inhibitory Concentration (MIC)
Procedure, shortened: as §1

Staph. aureus C-57 = assay: MIC by agar dilution, Staph. aureus C-57; details: Staphylococcus aureus, C57, 17 h, Mueller-Hinton agar, read-out: Minimal Inhibitory Concentration (MIC)
Procedure, shortened: as §1

Staph. aureus C-5113 = assay: MIC by agar dilution, Staph. aureus C-5113; details: Staphylococcus aureus, C5113, 17 h, Mueller-Hinton agar, read-out: Minimal Inhibitory Concentration (MIC)
Procedure, shortened: as §1

Staph. aureus C-5216 = assay: MIC by agar dilution, Staph. aureus C-5216; details: Staphylococcus aureus, C5216, 17 h, Mueller-Hinton agar, read-out: Minimal Inhibitory Concentration (MIC)
Procedure, shortened: as §1

[1] = system: S. epidermidis ATCC 12228; assay: MIC by agar dilution, S. epidermidis ATCC 12228; details: Staphylococcus epidermidis, ATCC12228, 17 h; S. epidermidis ATCC 12228; agar dilution, Mueller-Hinton agar; read-out: Minimal Inhibitory Concentration (MIC)
Procedure, shortened: as §1

Ent. aerogenes IFO 12979 = assay: MIC by agar dilution, Ent. aerogenes IFO 12979; details: Klebsiella aerogenes, IFO12979, 17 h, Mueller-Hinton agar, read-out: Minimal Inhibitory Concentration (MIC)
Procedure, shortened: as §1

Ent. cloacae IFO 13535 = assay: MIC by agar dilution, Ent. cloacae IFO 13535; details: Enterobacter cloacae, IFO13535, 17 h; Ent. cloacae IFO 13535; agar dilution, Mueller-Hinton agar; read-out: Minimal Inhibitory Concentration (MIC)
Procedure, shortened: as §1

E. coli NIHJ JC-2 = assay: MIC by agar dilution, E. coli NIHJ JC-2; details: Escherichia coli, NIHJJC2, 17 h; E. coli NIHJ JC-2; agar dilution, Mueller-Hinton agar; read-out: Minimal Inhibitory Concentration (MIC)
Procedure, shortened: as §1

E. coli No. 29 = assay: MIC by agar dilution, E. coli No. 29; details: Escherichia coli, 17 h; E. coli No. 29; agar dilution, Mueller-Hinton agar; read-out: Minimal Inhibitory Concentration (MIC)
Procedure, shortened: as §1

E. coli DY-1 = assay: MIC by agar dilution, E. coli DY-1; details: Escherichia coli, DY1, 17 h; E. coli DY-1; agar dilution, Mueller-Hinton agar; read-out: Minimal Inhibitory Concentration (MIC)
Procedure, shortened: as §1

K. pneumoniae NCTC 9632 = assay: MIC by agar dilution, K. pneumoniae NCTC 9632; details: Klebsiella pneumoniae, NCTC9632, 17 h; K. pneumoniae NCTC 9632; agar dilution, Mueller-Hinton agar; read-out: Minimal Inhibitory Concentration (MIC)
Procedure, shortened: as §1

M. morganii DY-1 = assay: MIC by agar dilution, M. morganii DY-1; details: Morganella morganii, DY1, 17 h; M. morganii DY-1; agar dilution, Mueller-Hinton agar; read-out: Minimal Inhibitory Concentration (MIC)
Procedure, shortened: as §1

[2] = system: Ps. aeruginosa ATCC 10145; assay: MIC by agar dilution, Ps. aeruginosa ATCC 10145; details: Pseudomonas aeruginosa, ATCC10145, 17 h, Mueller-Hinton agar, read-out: Minimal Inhibitory Concentration (MIC)
Procedure, shortened: as §1

[3] = system: Ps. aeruginosa NCTC 10490; assay: MIC by agar dilution, Ps. aeruginosa NCTC 10490; details: Pseudomonas aeruginosa, NCTC10490, 17 h, Mueller-Hinton agar, read-out: Minimal Inhibitory Concentration (MIC)
Procedure, shortened: as §1

Ps. aeruginosa DY-2 = assay: MIC by agar dilution, Ps. aeruginosa DY-2; details: Pseudomonas aeruginosa, DY2, 17 h; Ps. aeruginosa DY-2; agar dilution, Mueller-Hinton agar; read-out: Minimal Inhibitory Concentration (MIC)
Procedure, shortened: as §1

P. vulgaris NCTC 8313 = assay: MIC by agar dilution, P. vulgaris NCTC 8313; details: Proteus vulgaris, NCTC8313, 17 h; P. vulgaris NCTC 8313; agar dilution, Mueller-Hinton agar; read-out: Minimal Inhibitory Concentration (MIC)
Procedure, shortened: as §1

Prov. stuartii IFO 12930 = assay: MIC by agar dilution, Prov. stuartii IFO 12930; details: Providencia stuartii, IFO12930, 17 h, Mueller-Hinton agar, read-out: Minimal Inhibitory Concentration (MIC)
Procedure, shortened: as §1

[4] = system: Ser. marcescens IFO 12648; assay: MIC by agar dilution, Ser. marcescens IFO 12648; details: Serratia marcescens, IFO12648, 17 h; Ser. marcescens IFO 12648; agar dilution, Mueller-Hinton agar; read-out: Minimal Inhibitory Concentration (MIC)
Procedure, shortened: as §1

CCON=C(C(=O)NC1C(=O)N2C(C(=O)[O-])=C(C[n+]3ccn4c(C(C)=O)ccc4c3)CSC12)c1csc(N)n1 (stereo not drawn) [Ex. 19, 7-β-[(Z)-2-(2-aminothiazol-4-yl)-2-ethoxyiminoacetamido]-3-(6-acetylpyrrolo[1,2-a]pyrazinium-2-yl)methyl-3-cephem-4-carboxylate]
MIC (B. subtilis ATCC 6633): 0.1 µg/mL (≈ 0.176 µM)
MIC (Staph. aureus ATCC 6538P): 0.2 µg/mL (≈ 0.351 µM)
MIC (Staph. aureus Smith): 0.78 µg/mL (≈ 1.37 µM)
MIC (Staph. aureus C-57): 50 µg/mL (≈ 87.8 µM)
MIC (Staph. aureus C-5113): 1.56 µg/mL (≈ 2.74 µM)
MIC (Staph. aureus C-5216): 1.56 µg/mL (≈ 2.74 µM)
MIC [1]: 0.05 µg/mL (≈ 0.0878 µM)
MIC (Ent. aerogenes IFO 12979): 0.012 µg/mL (≈ 0.0211 µM)
MIC (Ent. cloacae IFO 13535): 0.2 µg/mL (≈ 0.351 µM)
MIC (E. coli NIHJ JC-2): 0.05 µg/mL (≈ 0.0878 µM)
MIC (E. coli No. 29): 0.05 µg/mL (≈ 0.0878 µM)
MIC (E. coli DY-1): 0.025 µg/mL (≈ 0.0439 µM)
MIC (K. pneumoniae NCTC 9632): 0.05 µg/mL (≈ 0.0878 µM)
MIC (M. morganii DY-1): 0.025 µg/mL (≈ 0.0439 µM)
MIC [2]: 3.13 µg/mL (≈ 5.49 µM)
MIC [3]: 0.1 µg/mL (≈ 0.176 µM)
MIC (Ps. aeruginosa DY-2): 6.25 µg/mL (≈ 11 µM)
MIC (P. vulgaris NCTC 8313): ≤ 0.006 µg/mL
MIC (Prov. stuartii IFO 12930): 0.05 µg/mL (≈ 0.0878 µM)
MIC [4]: 0.1 µg/mL (≈ 0.176 µM)

CON=C(C(=O)NC1C(=O)N2C(C(=O)[O-])=C(C[n+]3ccn4c(C(C)O)ccc4c3)CSC12)c1csc(N)n1 (stereo not drawn) [Ex. 20, 7-β-[(Z)-2-(2-aminothiazol-4-yl)-2-methoxyiminoacetamido]-3-[6-(1-hydroxyethyl)pyrrolo[1,2-a]pyrazinium-2-yl]methyl-3-cephem-4-carboxylate]
MIC (B. subtilis ATCC 6633): 0.1 µg/mL (≈ 0.179 µM)
MIC (Staph. aureus ATCC 6538P): 0.2 µg/mL (≈ 0.359 µM)
MIC (Staph. aureus Smith): 0.78 µg/mL (≈ 1.4 µM)
MIC (Staph. aureus C-57): 50 µg/mL (≈ 89.7 µM)
MIC (Staph. aureus C-5113): 1.56 µg/mL (≈ 2.8 µM)
MIC (Staph. aureus C-5216): 1.56 µg/mL (≈ 2.8 µM)
MIC [1]: 0.2 µg/mL (≈ 0.359 µM)
MIC (Ent. aerogenes IFO 12979): ≤ 0.006 µg/mL
MIC (Ent. cloacae IFO 13535): 0.1 µg/mL (≈ 0.179 µM)
MIC (E. coli NIHJ JC-2): 0.025 µg/mL (≈ 0.0448 µM)
MIC (E. coli No. 29): ≤ 0.006 µg/mL
MIC (E. coli DY-1): ≤ 0.006 µg/mL
MIC (K. pneumoniae NCTC 9632): 0.012 µg/mL (≈ 0.0215 µM)
MIC (M. morganii DY-1): 0.012 µg/mL (≈ 0.0215 µM)
MIC [2]: 0.78 µg/mL (≈ 1.4 µM)
MIC [3]: 0.2 µg/mL (≈ 0.359 µM)
MIC (Ps. aeruginosa DY-2): 3.13 µg/mL (≈ 5.61 µM)
MIC (P. vulgaris NCTC 8313): 0.012 µg/mL (≈ 0.0215 µM)
MIC (Prov. stuartii IFO 12930): ≤ 0.006 µg/mL
MIC [4]: 0.025 µg/mL (≈ 0.0448 µM)

CON=C(C(=O)NC1C(=O)N2C(C(=O)[O-])=C(C[n+]3ccn4c(CO)ccc4c3)CSC12)c1csc(N)n1 (stereo not drawn) [Ex. 21, 7-β-[(Z)-2-(2-aminothiazol-4-yl)-2-methoxyiminoacetamido]-3-(6-hydroxymethylpyrrolo[1,2-a]pyrazinium-2-yl)methyl-3-cephem-4-carboxylate]
MIC (B. subtilis ATCC 6633): 0.1 µg/mL (≈ 0.184 µM)
MIC (Staph. aureus ATCC 6538P): 0.2 µg/mL (≈ 0.368 µM)
MIC (Staph. aureus Smith): 0.78 µg/mL (≈ 1.43 µM)
MIC (Staph. aureus C-57): 50 µg/mL (≈ 92 µM)
MIC (Staph. aureus C-5113): 3.13 µg/mL (≈ 5.76 µM)
MIC (Staph. aureus C-5216): 0.78 µg/mL (≈ 1.43 µM)
MIC [1]: 0.2 µg/mL (≈ 0.368 µM)
MIC (Ent. aerogenes IFO 12979): ≤ 0.006 µg/mL
MIC (Ent. cloacae IFO 13535): 0.1 µg/mL (≈ 0.184 µM)
MIC (E. coli NIHJ JC-2): 0.012 µg/mL (≈ 0.0221 µM)
MIC (E. coli No. 29): ≤ 0.006 µg/mL
MIC (E. coli DY-1): ≤ 0.006 µg/mL
MIC (K. pneumoniae NCTC 9632): 0.012 µg/mL (≈ 0.0221 µM)
MIC (M. morganii DY-1): 0.012 µg/mL (≈ 0.0221 µM)
MIC [2]: 0.39 µg/mL (≈ 0.717 µM)
MIC [3]: 0.1 µg/mL (≈ 0.184 µM)
MIC (Ps. aeruginosa DY-2): 6.25 µg/mL (≈ 11.5 µM)
MIC (P. vulgaris NCTC 8313): ≤ 0.006 µg/mL
MIC (Prov. stuartii IFO 12930): ≤ 0.006 µg/mL
MIC [4]: 0.012 µg/mL (≈ 0.0221 µM)

Nc1nc(C(=NOCF)C(=O)NC2C(=O)N3C(C(=O)[O-])=C(C[n+]4ccn5c(CO)ccc5c4)CSC23)cs1 (stereo not drawn) [Ex. 22, 7-β-[(Z)-2-(2-aminothiazol-4-yl)-2-fluoromethoxyiminoacetamido]-3-(6-hydroxymethylpyrrolo[1,2-a]pyrazinium-2-yl)methyl-3-cephem-4-carboxylate]
MIC (B. subtilis ATCC 6633): 0.1 µg/mL (≈ 0.178 µM)
MIC (Staph. aureus ATCC 6538P): 0.2 µg/mL (≈ 0.356 µM)
MIC (Staph. aureus Smith): 0.78 µg/mL (≈ 1.39 µM)
MIC (Staph. aureus C-57): 50 µg/mL (≈ 89 µM)
MIC (Staph. aureus C-5113): 1.56 µg/mL (≈ 2.78 µM)
MIC (Staph. aureus C-5216): 0.78 µg/mL (≈ 1.39 µM)
MIC [1]: 0.025 µg/mL (≈ 0.0445 µM)
MIC (Ent. aerogenes IFO 12979): ≤ 0.006 µg/mL
MIC (Ent. cloacae IFO 13535): 0.05 µg/mL (≈ 0.089 µM)
MIC (E. coli NIHJ JC-2): ≤ 0.006 µg/mL
MIC (E. coli No. 29): ≤ 0.006 µg/mL
MIC (E. coli DY-1): ≤ 0.006 µg/mL
MIC (K. pneumoniae NCTC 9632): ≤ 0.006 µg/mL
MIC (M. morganii DY-1): ≤ 0.006 µg/mL
MIC [2]: 0.39 µg/mL (≈ 0.694 µM)
MIC [3]: 0.1 µg/mL (≈ 0.178 µM)
MIC (Ps. aeruginosa DY-2): 1.56 µg/mL (≈ 2.78 µM)
MIC (P. vulgaris NCTC 8313): ≤ 0.006 µg/mL
MIC (Prov. stuartii IFO 12930): ≤ 0.006 µg/mL
MIC [4]: ≤ 0.006 µg/mL

— patent publication US5593984A, “Cephalosporin derivatives” (Yuhan Corporation, priority 1992, dated 1997)
